Source: patent US20250186562A1, “TARGET SUBSTRATE PROTEIN DEGRADATION PLATFORM” (The Regents of the University of California, priority 2022, published 2025)
Non-standard residues stand in square brackets, D forms with d. Residues, ends and D or L forms follow the SMILES beside them. No end group written: not given here. ξ: configuration not given here. Tyr(3-NO2) = N[C@@H](Cc1ccc(O)c([N+](=O)[O-])c1)C(=O)O; dPhe(4-guanidino) = N=C(N)Nc1ccc(C[C@@H](N)C(=O)O)cc1; fluorescein = fluorescein attached to the C-terminus; Phe(4-guanidino) = N=C(N)Nc1ccc(C[C@H](N)C(=O)O)cc1; Tyr(3-F) = N[C@@H](Cc1ccc(O)c(F)c1)C(=O)O; Arg(Me2a) = CN(C)C(=N)NCCC[C@H](N)C(=O)O; Phe(4-NH2) = Nc1ccc(C[C@H](N)C(=O)O)cc1; His(τ-Me) = Cn1cnc(C[C@H](N)C(=O)O)c1; His(π-Me) = Cn1cncc1C[C@H](N)C(=O)O; 4Pal = N[C@@H](Cc1ccncc1)C(=O)O; 2Thi = N[C@@H](Cc1cccs1)C(=O)O; Ile(3ξ) = CCC(C)[C@H](N)C(=O)O

How the values were obtained:
[1] = molecular target: GST-Ubr-box of Ubr1 (Homo sapiens (Human), UniProt Q8IWV7); experiment: Competition fluorescence polarization (FP) assay, GST-Ubr-box of Ubr1; assay type: binding; details: for Ki: [GST-UBR1]=2 μM, tracer 9 nM, read-out: UBR1 Affinity Ki FP
GST-Ubr-box of Ubr1, sequence (Q8IWV7 other isoform, or with tags, fused parts or gaps): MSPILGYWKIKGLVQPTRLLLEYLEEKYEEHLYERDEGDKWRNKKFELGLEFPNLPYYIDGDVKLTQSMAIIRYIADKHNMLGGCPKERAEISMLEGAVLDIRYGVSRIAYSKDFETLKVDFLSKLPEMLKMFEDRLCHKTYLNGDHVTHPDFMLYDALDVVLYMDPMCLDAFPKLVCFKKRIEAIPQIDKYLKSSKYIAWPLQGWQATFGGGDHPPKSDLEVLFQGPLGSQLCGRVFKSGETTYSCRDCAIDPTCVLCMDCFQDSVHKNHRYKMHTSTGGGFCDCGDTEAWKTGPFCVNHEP
Source text: (§1) Fluorescence Polarization (FP) assays were used to determine binding affinity of the peptidomimetic compounds for the Ubr box (FIGS. 4A-B). FIG. 1A depicts the mechanism of action of peptidomimetic compounds that include a linker. […] Binding affinities as determined by Structure Activity Relationship Studies (SARs) of additional peptidomimetic compounds to GST-Ubr-box of Ubr 1 and Ubr2 are shown in Table 1.
(§2) The FP assay uses a tetrapeptide with a sequence arginine-isoleucine-phenylalanine-serine (RIFS) with fluorescein attached to the C-terminus as tracer that was previously shown to bind to the Ubr-boxes of Ubr1 and Ubr2 with similar binding affinity. Assays were developed in 384-well plates, which were read on a Clariostar Reader. Signal-to-background ratio (S/B) was optimized by varying concentrations of GST-Ubr-box and tracer concentrations. GST-fusion proteins were used due to its larger size than Ubr-box alone to increase the FP effect. […] The optimized condition includes receptor concentration [GST-UBR1]=2 μM, tracer concentration [tracer]=9 nM, and the highest concentration of unlabeled peptidomimetic compound competitors at 200 μM with 3× serial dilutions.
(§3) Preliminary ITC measurements confirmed the FP measurements (FIG. 4C).

[2] = molecular target: GST-Ubr-box of Ubr2 (Homo sapiens (Human), UniProt Q8IWV8); experiment: Competition fluorescence polarization (FP) assay, GST-Ubr-box of Ubr2; assay type: binding; details: read-out: UBR2 Affinity Ki FP
GST-Ubr-box of Ubr2, sequence (Q8IWV8 other isoform, or with tags, fused parts or gaps): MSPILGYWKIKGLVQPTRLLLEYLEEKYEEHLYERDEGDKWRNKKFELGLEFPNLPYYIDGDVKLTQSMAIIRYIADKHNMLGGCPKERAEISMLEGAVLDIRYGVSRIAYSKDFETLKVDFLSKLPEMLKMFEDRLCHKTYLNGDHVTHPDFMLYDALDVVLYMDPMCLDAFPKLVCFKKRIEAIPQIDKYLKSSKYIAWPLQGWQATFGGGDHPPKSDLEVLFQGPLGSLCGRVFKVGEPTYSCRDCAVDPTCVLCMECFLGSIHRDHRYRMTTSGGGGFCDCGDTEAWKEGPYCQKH
Source text: as §1, §2, §3

[3] = molecular target: Ubr-box of Ubr1 (Homo sapiens (Human), UniProt Q8IWV7); experiment: FP titration of GST-Ubr-box into tracer, Ubr1; assay type: binding; details: 9 nM tracer
Ubr-box of Ubr1, sequence (Q8IWV7 other isoform, or with tags, fused parts or gaps): as the sequence (Q8IWV7 other isoform, or with tags, fused parts or gaps) above
Source text: as §2, §3

[4] = molecular target: Ubr-box of Ubr2 (Homo sapiens (Human), UniProt Q8IWV8); experiment: FP titration of GST-Ubr-box into tracer, Ubr2; assay type: binding; details: 9 nM tracer
Ubr-box of Ubr2, sequence (Q8IWV8 other isoform, or with tags, fused parts or gaps): as the sequence (Q8IWV8 other isoform, or with tags, fused parts or gaps) above
Source text: as §2, §3

[5] = system: Ubr-mediated GFP degradation (Ubiquitin-R-GFP model Ubr substrate); experiment: R-GFP degradation in cells (fluorescent imaging); assay type: cell-based; details: cells expressing Ubiquitin-R-GFP
Source text: The peptidomimetic compound outcompetes the R-GFP model Ubr substrate for E3 binding, therefore preventing GFP degradation. The upper panels show fluorescent imaging of the cells and the lower panel show a bright field of the cells.

[6] = molecular target: ERRα protein (Homo sapiens (Human), UniProt P11474); experiment: ERRα protein level in Hela cells by Western blot; assay type: cell-based; details: Hela cells treated overnight at 100 nM, 33.3 nM, and 11.1 nM; Western blot of whole cell lysates
ERRα protein, sequence (P11474 whole entry): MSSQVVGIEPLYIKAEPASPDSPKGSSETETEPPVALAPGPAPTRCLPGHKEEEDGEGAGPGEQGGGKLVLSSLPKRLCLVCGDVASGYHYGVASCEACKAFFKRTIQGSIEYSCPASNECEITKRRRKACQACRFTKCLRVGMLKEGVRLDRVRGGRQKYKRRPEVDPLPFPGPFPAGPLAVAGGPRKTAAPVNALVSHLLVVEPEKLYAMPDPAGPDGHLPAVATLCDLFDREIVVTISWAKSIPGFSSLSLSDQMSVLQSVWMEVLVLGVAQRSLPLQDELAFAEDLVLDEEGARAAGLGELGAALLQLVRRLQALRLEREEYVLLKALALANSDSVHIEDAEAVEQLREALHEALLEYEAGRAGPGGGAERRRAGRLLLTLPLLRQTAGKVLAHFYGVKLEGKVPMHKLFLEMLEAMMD
Description: In this experiment, Hela cells were treated overnight at a concentration of 100 nM, 33.3 nM, and 11.1 nM with the above peptidomimetic compound. The ERRα protein was detected by Western blot from whole cell lysates. Glyceraldehyde 3-phosphate dehydrogenase (GAPDH) was blotted as loading control.

Compound | Ki [1] [µM] | Ki [2] [µM] | further results
CN(C)C(=N)NCCC[C@H](N)C(=O)N[C@@H](Cc1ccc(O)c(F)c1)C(=O)N[C@@H](Cc1ccccc1)C(N)=O [Compound 28] (H-[Arg(Me2a)]-[Tyr(3-F)]-Phe-NH2) | < 1 | 1 to 10 | –
CC[C@H](C)[C@H](NC(=O)[C@@H](N)CCCN(C)C(=N)NC)C(=O)N[C@@H](Cc1ccccc1)C(N)=O [Compound 6] | > 100 | > 100 | –
CCC(C)C(NC(=O)[C@@H](N)CCCNC(=N)N)C(=O)N[C@@H](Cc1ccccc1)C(N)=O (some centres unmarked) [Compound 27] | 1 to 10 | 1 to 10 | –
CNC(=N)N(C)CCC[C@H](N)C(=O)N[C@@H](Cc1ccc(O)c([N+](=O)[O-])c1)C(=O)N[C@@H](Cc1ccccc1)C(N)=O [Compound 11] | 10 to 100 | 1 to 10 | –
CC[C@H](C)[C@H](NC(=O)[C@@H](N)Cc1ccncc1)C(=O)N[C@@H](Cc1ccccc1)C(N)=O [Compound 23] (H-[4Pal]-Ile-Phe-NH2) | > 100 | > 100 | –
CC[C@H](C)[C@H](NC(=O)[C@@H](N)Cc1nn[nH]n1)C(=O)N[C@@H](Cc1ccccc1)C(N)=O [Compound 8] | > 100 | > 100 | –
N=C(N)NCCC[C@H](N)C(=O)N[C@@H](Cc1ccc(O)c([N+](=O)[O-])c1)C(=O)N[C@@H](Cc1ccccc1)C(N)=O [Compound 1] | 1 to 10 | 1 to 10 | –
CC[C@H](C)[C@H](NC(=O)[C@@H](N)Cc1cccs1)C(=O)N[C@@H](Cc1ccccc1)C(N)=O [Compound 21] (H-[2Thi]-Ile-Phe-NH2) | > 100 | > 100 | –
CC[C@H](C)[C@H](NC(=O)[C@@H](N)Cc1ccc(N=C(N)N)cc1)C(=O)N[C@@H](Cc1ccccc1)C(N)=O [Compound 2] (H-[Phe(4-guanidino)]-Ile-Phe-NH2) | 1 to 10 | < 1 | –
COc1ccc(C[C@H](NC(=O)[C@@H](N)CCCNC(=N)N(C)C)C(=O)N[C@@H](Cc2ccccc2)C(N)=O)cc1 [Compound 15] (H-[Arg(Me2a)]-Tyr(Me)-Phe-NH2) | < 1 | < 1 | –
N=C(NCCC[C@H](N)C(=O)N[C@@H](Cc1ccc(O)c([N+](=O)[O-])c1)C(=O)N[C@@H](Cc1ccccc1)C(N)=O)NCC(F)(F)F [Compound 33] | < 1 | < 1 | –
CC[C@H](C)[C@H](NC(=O)[C@@H](N)Cc1cn(C)cn1)C(=O)N[C@@H](Cc1ccccc1)C(N)=O [Compound 13] (H-[His(τ-Me)]-Ile-Phe-NH2) | > 100 | > 100 | –
unlabeled tetrapeptide: unlabeled tetrapeptide (RIFS sequence without fluorescein tag) used as competitor [reference compound] | – | – | displacement of tracer [1]: Effective displacement of tracer
CC[C@H](C)[C@H](NC(=O)[C@@H](N)CCC/N=C(\N)N(C)C)C(=O)N[C@@H](Cc1ccccc1)C(N)=O [Compound 32] (H-[Arg(Me2a)]-Ile-Phe-NH2) | 1 to 10 | 1 to 10 | –
CC(C[C@H](NC(=O)[C@@H](N)CCCNC(=N)N)C(=O)N[C@@H](Cc1ccccc1)C(N)=O)C(F)(F)F (some centres unmarked) [Compound 26] | < 1 | < 1 | –
NC(=O)[C@H](Cc1ccccc1)NC(=O)[C@@H](N)Cc1ccc(O)c([N+](=O)[O-])c1 [Compound 18] (H-[Tyr(3-NO2)]-Phe-NH2) | > 100 | > 100 | –
CN(C)C(=N)NCCC[C@H](N)C(=O)N[C@@H](Cc1cscn1)C(=O)N[C@@H](Cc1ccccc1)C(N)=O [Compound 29] | 1 to 10 | 1 to 10 | –
CN(C)C(=N)NCCC[C@H](N)C(=O)N[C@@H](Cc1cccs1)C(=O)N[C@@H](Cc1ccccc1)C(N)=O [Compound 30] | < 1 | 1 to 10 | –

Compound | Ki [1] [µM] | Ki [2] [µM] | further results
COc1ccc(C[C@H](NC(=O)[C@@H](N)CCCNC(=N)NCC(F)(F)F)C(=O)N[C@@H](Cc2ccccc2)C(N)=O)cc1 [Compound 14] | < 1 | < 1 | –
CCC(C)[C@H](NC(=O)[C@@H](N)Cc1ccc(NC(C)=O)cc1)C(=O)N[C@@H](Cc1ccccc1)C(N)=O (some centres unmarked) [Compound 24] (H-[Phe(4-NH2)](Ac)-[Ile(3ξ)]-Phe-NH2) | 10 to 100 | 10 to 100 | –
CN(C)C(=N)NCCC[C@H](N)C(=O)N[C@@H](Cc1ccc(O)c([N+](=O)[O-])c1)C(=O)N[C@@H](Cc1ccccc1)C(N)=O [Compound 19] (H-[Arg(Me2a)]-[Tyr(3-NO2)]-Phe-NH2) | < 1 | < 1 | –
CCNC(=N)N(CC)CCC[C@H](N)C(=O)N[C@H](C(=O)N[C@@H](Cc1ccccc1)C(N)=O)[C@@H](C)CC [Compound 9] | 10 to 100 | 10 to 100 | –
tracer: tetrapeptide arginine-isoleucine-phenylalanine-serine (RIFS) with fluorescein attached to the C-terminus as tracer (RIFS-fluorescein) | – | – | binding of tracer to Ubr-box of Ubr1 [3]: can bind; binding of tracer to Ubr-box of Ubr2 [4]: can bind
CC[C@H](C)[C@H](NC(=O)[C@@H](N)CCCNC(=N)NCC(F)(F)F)C(=O)N[C@@H](Cc1ccccc1)C(N)=O [Compound 4] | < 1 | < 1 | concentration at which R-GFP degradation in cells is blocked [5]: > 1 µM
CC[C@H](C)[C@H](NC(=O)[C@@H](N)Cc1ccc(NC(N)=O)cc1)C(=O)N[C@@H](Cc1ccccc1)C(N)=O [Compound 5] | > 100 | 10 to 100 | –
CNC(=N)N(C)CCC[C@H](N)C(=O)N[C@@H](Cc1ccc(O)c(C)c1)C(=O)N[C@@H](Cc1ccccc1)C(N)=O [Compound 7] | 10 to 100 | 10 to 100 | –
CNC(=N)N(C)CCC[C@H](N)C(=O)N[C@@H](Cc1ccc(O)c([N+](=O)[O-])c1)C(=O)N[C@@H](Cc1ccccc1)C(N)=O [Compound 12] | 1 to 10 | < 1 | –
CC[C@H](C)[C@H](NC(=O)[C@@H](N)CCONC(=N)N)C(=O)N[C@@H](Cc1ccccc1)C(N)=O [Compound 3] | 10 to 100 | 10 to 100 | –
CN(C)C(=N)NCCC[C@H](N)C(=O)N1CCC[C@H]1C(=O)N[C@@H](Cc1ccccc1)C(N)=O [Compound 31] (H-[Arg(Me2a)]-Pro-Phe-NH2) | > 100 | > 100 | –
NCC(=O)N[C@@H](Cc1ccc(O)c([N+](=O)[O-])c1)C(N)=O [Compound 17] (H-Gly-[Tyr(3-NO2)]-NH2) | > 100 | > 100 | –
COc1ccc(C[C@H](NC(=O)[C@H](N)Cc2ccc(N=C(N)N)cc2)C(=O)N[C@@H](Cc2ccccc2)C(N)=O)cc1 [Compound 16] (H-[dPhe(4-guanidino)]-Tyr(Me)-Phe-NH2) | < 1 | < 1 | –
COc1cc(/C=C2\SC(=O)N(Cc3cn(CCCNC(=O)[C@H](Cc4ccccc4)NC(=O)[C@H](Cc4ccc(O)c([N+](=O)[O-])c4)NC(=O)[C@@H](N)CCCNC(=N)NCC(F)(F)F)nn3)C2=O)ccc1Oc1ccc(C#N)cc1C(F)(F)F [above peptidomimetic compound] | – | – | levels of the ERRα protein in cells [6]: reduction of levels of the ERRα protein
N=C(NCCC[C@H](N)C(=O)N[C@@H](Cc1ccc(O)c(Cl)c1)C(=O)N[C@@H](Cc1ccccc1)C(N)=O)NCC(F)(F)F [Compound 20] | < 1 | < 1 | –
CC[C@H](C)[C@H](NC(=O)[C@@H](N)Cc1cncn1C)C(=O)N[C@@H](Cc1ccccc1)C(N)=O [Compound 10] (H-[His(π-Me)]-Ile-Phe-NH2) | > 100 | > 100 | –
N=C(N)NCCC[C@H](N)C(=O)N[C@@H](Cc1ccc(O)c(Cl)c1)C(=O)N[C@@H](Cc1ccccc1)C(N)=O [Compound 25] | 1 to 10 | 10 to 100 | –
CC[C@H](C)[C@H](NC(=O)[C@H](Cc1ccccc1)NC(=O)[C@@H](N)Cc1ccncc1)C(N)=O [Compound 22] (H-[4Pal]-Phe-Ile-NH2) | > 100 | > 100 | –
